# Test system: primary normal human bladder epithelial cells
# Assay: 3H-thymidine incorporation
# Format: cell-based
# Conditions: not given
Substance,loss of potency/activity compared to parent as-APF 1 (orders of magnitude),antiproliferative activity relative to as-APF 1 (in words)
Galβ1-3GalNAcα-O-TV-Hyp-AAVVVA [compound 12],2–3 orders of magnitude,
Galβ1-3GalNAcα-O-TVPAAGGGA [compound 26],,complete inactivation
Galβ1-3GalNAcα-O-TVPAAVVVAK [compound 33],,complete loss of activity
Galβ1-3GalNAcα-O-TVPAAVVVAK(dansyl) [compound 31],,no loss of activity
Galβ1-3GalNAcα-O-SLPAAVVVA [compound 2],2 orders of magnitude,
Galβ1-3GalNAcα-O-SVPAAVVVA [compound 3],4 orders of magnitude,
Galβ1-3GalNAcα-O-TVPAAVVVAK(Ac) [compound 35],,some of which was restored
Galβ1-3GalNAcα-O-TVPAAAAAA [compound 25],,decreased as-APF activity
Galβ1-3GalNAcα-O-TLPAAVVVA [compound 4],,inactivation
Galβ1-3GalNAcα-O-TV-Aze-AAVVVA [compound 10],,completely abolished activity
"Galβ1-3GalNAcα-O-TLS(^ΨMe,Mepro)-AAVVVA [compound 9]",,completely abolished activity
Galβ1-3GalNAcα-O-TV-Pip-AAVVVA [compound 15],,complete retention

# Test system: primary normal human bladder epithelial cells
# Assay: not given
# Conditions: biological antiproliferation assays; cited from earlier work
row,Substance,"antiproliferative activity (previously determined, in words)"
1,Neu5Acα2-3Galβ1-4GlcNAcαO-SLPAAVVVA,essentially equipotent
2,Neu5Acα2-3Galβ1-3GalNAcα-O-TVPAAVVVA [APF],essentially equipotent
3,Galβ1-4GlcNAcα-O-SLPAAVVVA,essentially equipotent
4,Galβ1-3GalNAcβ-O-TVPAAVVVA,completely inactive
5,TVPAAVVVA [nonglycosylated nonapeptide],completely inactive
6,Neu5Acα2-3Galβ1-4GlcNAcα-O-TVPAAVVVA,essentially equipotent

# Test system: normal bladder epithelial as well as cells derived from urothelial carcinomas
# Assay: not given
# Conditions: native and synthetic APF; cited from earlier work
row,Substance,concentrations inhibiting proliferation
1,Neu5Acα2-3Galβ1-3GalNAcα-O-TVPAAVVVA [APF],picomolar to low nanomolar

# — PMC2778288 (Journal of medicinal chemistry, 2008)
